From US6716829B2, “Aldosterone antagonist and cyclooxygenase-2 inhibitor combination therapy to prevent or treat inflammation-related cardiovascular disorders” (Pharmacia Corporation, priority 2000, dated 2004)
Where “and” joins values, the source holds several entries; their conditions need not be identical. Identical values can stand only once. Entries after “also recorded” stand apart in the source; their conditions may differ.

Experiments:
[1] = system: monocyte chemoattractant protein-1 (MCP-1); experiment: Assay C: MCP-1 mRNA in heart by TaqMan RT-PCR; type: in vivo, Male Sprague-Dawley rats; settings: for MCP-1 mRNA (AU): relative to cyclophilin expression, mean ± SEM, eplerenone dose 100 mg/kg/day; for MCP1 (AU): mRNA, individual rats, incl. rat marked * excluded from statistics; for MCP-1 mRNA expression: myocardium, aldosterone + salt, 7, 14, 30 days, eplerenone 100 mg/kg/day
Description: (§1) The procedure of Assay B was expanded upon in a further study. […] Myocardial tissue from animals in each treatment group was examined after 7, 14, or 30 days of treatment.
(§2) Potassium chloride supplementation was added to the saline solution in order to prevent the potential hypokalemia associated with aldosterone excess.
(§3) At the time of the surgery, an Alzet 2002 osmotic minipump (Alza Corp., Palo Alto, Calif.) containing either vehicle (9% ethanol/87% propylene glycol/4% dH2O) or 1.0 mg/mL d-aldosterone (Sigma Chemical, St. Louis, Mo.) was inserted subcutaneously at the nape of the neck. Aldosterone was administered at a dose of 0.75 µg/hour. […] Animals were sacrificed from each group (n=8-13) after 7, 14, or 30 days of treatment.
(§4) The fluorogenic 5′-nuclease assay (TaqMan PCR) using Applied Biosystems' 7700 Sequence Detection System (Applied Biosystems, Foster City, Calif.) allowed for real time detection/quantitation of a specific gene by monitoring the increase in fluorescence of a gene-specific, dye-labeled oligonucleotide probe. Probes for target and reference genes were labeled at the 5′-end with a 6-carboxyfluorescein (6FAM) reporter dye and at the 3′-end with a 6-carboxy-N,N,N′,N′-tetramethylrhodamine (TAMRA) quencher dye. When the probe was annealed to the target gene, fluorescence of 6FAM was prevented by the close proximity of TAMRA. The exonuclease activity of Taq polymerase released the dyes from the oligonucleotide probe by displacing the probe from the target sequence resulting in fluorescence excitation in direct proportion to the amount of target message present. Data analysis was performed using the Sequence Detection System software from Applied Biosystems.
(§5) All primers and probes were designed using Primer Express software supplied with the 7700 Sequence Detection System and synthesized by Applied Biosystems. Standard curves using 5-fold dilutions of total RNA (from 200 ng to 320 pg) were performed to determine the efficiency of each primer/probe set in the TaqMan reaction prior to the analysis of the experimental samples. Primer/probe sets were designed from known sequences of rat genes to be analyzed. All target gene values were normalized to a reference gene, constitutively expressed cyclophilin. Primer/probe set sequences can be found in Table 8.
(§6) RNA was extracted from frozen (−80° C.) rat heart tissue using the Totally RNA Isolation Kit (Ambion, Inc., Austin, Tex.). Tissue was crushed using a stainless steel mortar and pestle, which had been chilled to −80° C. and transferred to a dounce homogenizer (Kontes, Vineland, N.J.) containing 3-10 mL cold denaturation buffer. Tissue was homogenized and transferred to a sterile, 15 mL polypropylene centrifuge tube. An equal volume of phenol:chloroform:isoamyl alcohol (25:24:1) was added, samples were shaken vigorously for 1 min, and incubated on ice for at least 15 min. Samples were centrifuged for 30 min at 10,000g. The aqueous phase was removed, 1/10 volume of a sodium acetate solution (3.0 M NaOAc pH 4.5) was added, samples were shaken or inverted for 10 seconds, and acid-phenol (premixed with isoamyl alcohol):chloroform (5:1, Ambion, Inc.) was added at an volume equivalent to the starting sample volume. Samples were shaken vigorously for 1 min, followed by a 15-min incubation on ice, and centrifuged for 30 min at 10,000 g. The aqueous phase removed and placed in a clean polypropylene tube. An equal volume of isopropanol (Sigma, St. Louis, Mo.) was added and the samples were mixed and incubated overnight at −20° C. The samples were centrifuged for 30 min at 10,000 g, the supernatant was removed and the RNA pellet was resuspended in DNAse/RNAse-free water. Samples were frozen at −80° C. for at least 2 hours, thawed on wet ice, and diluted for quantitation.

[2] = system: aldosterone infused rats; experiment: Assay B, aldosterone infusion model: systolic blood pressure by radio-telemetry; type: in vivo, Male Sprague Dawley rats; settings: 1% NaCl, uni-nephrectomized rats, eplerenone 100 mpk p.o., 4 weeks
Description: Human cardiovascular disorders are complex conditions, often initiated by vascular hypertension or a myocardial infarction (MI). In order to determine the probable effectiveness of a therapy for cardiovascular disorders, it is important to determine the potency of components in several assays. Accordingly, in Assay “A”, the efficacy of the aldosterone antagonist epeplerenone (epoxymexrenone) was determined in a hypertensive rat model with vascular inflammation, using angiotensin II infusion. In Assay “B” a study is described evaluating the efficacy of the aldosterone antagonist epeplerenone (epoxymexrenone) in a rat model using aldosterone infusion to produce hypertension with vascular inflammation. In Assay “C” a further study is described evaluating the efficacy of the aldosterone antagonist epeplerenone (epoxymexrenone) in a rat model using aldosterone infusion to produce hypertension with vascular inflammation. Assay B: In Vivo Aldosterone Infusion Model Male Sprague Dawley rats (n=39; BW=250 g) […] Uni-nephrectomy performed during implantation of mini-pumps 2. Aldosterone ([…], sc via alzet minipump) 2. […] 1. […] SBP measured by radio-telemetry probes inserted in the abdominal aorta

[3] = system: Intracellular adhesion molecule-1 (ICAM-1); experiment: Assay C: ICAM-1 mRNA in heart by TaqMan RT-PCR; type: in vivo, Male Sprague-Dawley rats; settings: for ICAM mRNA (AU): relative to cyclophilin expression, mean ± SEM, eplerenone dose 100 mg/kg/day; for ICAM (AU): mRNA; for ICAM-1 mRNA expression: myocardium, aldosterone + salt, 7, 14, 30 days, eplerenone 100 mg/kg/day
Description: as §1, §2, §3, §4, §5, §6

[4] = group mean, data used for Table 17 (7-day protocol)
[5] = group mean, data used for Table 18 (14-day protocol)
[6] = group mean, data used for Table 19 (30-day protocol)

SMILES	MCP-1 mRNA (AU) ([1]; after 7 days of treatment)	MCP-1 mRNA (AU) ([1]; after 14 days of treatment)	MCP-1 mRNA (AU) ([1]; after 30 days of treatment)	MCP-1 mRNA expression [1]	Systolic Blood Pressure [2]	ICAM mRNA (AU) ([3]; after 7 days of treatment)	ICAM mRNA (AU) ([3]; after 14 days of treatment)	ICAM mRNA (AU) ([3]; after 30 days of treatment)	ICAM (AU) [3, 4] [AU]	ICAM (AU) [3, 5] [AU]	ICAM (AU) [3, 6] [AU]	ICAM-1 mRNA expression [3]	also measured
C[C@]12CCC(=O)C=C1CC[C@@H]1[C@@H]2[C@@H](O)C[C@]2(C=O)[C@@H](C(=O)CO)CC[C@@H]12 [Aldosterone]	2.38	2.76	4.54	significantly increased	increased; also recorded: systolic blood pressure elevation	1.22	1.47	1.81	1.22	1.47	1.81	upregulated at day 14 and 30	MCP1 (AU) ([1]; data used for Table 17 (7-day protocol), listed as Aldosterone + salt): 2.05 AU and 1.78 AU and 3.06 AU and 2.36 AU and 1.95 AU and 2.33 AU and 3.14 AU and 2.40 AU and 5.17 AU; MCP1 (AU) ([1]; data used for Table 18 (14-day protocol), listed as Aldosterone + salt): 2.42 AU and 1.87 AU and 4.59 AU and 3.19 AU and 3.34 AU and 1.91 AU and 2.50 AU and 2.22 AU and 5.88 AU; MCP1 (AU) ([1]; data used for Table 19 (30-day protocol), listed as Aldosterone + salt): 3.94 AU and 7.19 AU and 1.61 AU and 9.35 AU and 2.30 AU and 2.86 AU; ICAM (AU) ([3]; individual rats, data used for Table 17 (7-day protocol), incl. rat marked * excluded from statistics, listed as Aldosterone + salt): 1.39 AU and 0.80 AU and 1.09 AU and 1.61 AU and 1.11 AU and 1.15 AU and 1.56 AU and 1.06 AU and 1.68 AU; ICAM (AU) ([3]; individual rats, data used for Table 18 (14-day protocol), incl. rat marked * excluded from statistics, listed as Aldosterone + salt): 1.16 AU and 1.18 AU and 1.75 AU and 1.15 AU and 1.91 AU and 1.19 AU and 1.82 AU and 1.57 AU and 1.84 AU; ICAM (AU) ([3]; individual rats, data used for Table 19 (30-day protocol), incl. rat marked * excluded from statistics, listed as Aldosterone + salt): 2.67 AU and 1.63 AU and 1.69 AU and 1.50 AU and 1.54 AU
COC(=O)[C@@H]1CC2=CC(=O)CC[C@]2(C)[C@@]23O[C@@H]2C[C@@]2(C)[C@@H](CC[C@@]24CCC(=O)O4)[C@H]13 [Eplerenone]	1.56	1.59	2.29	inhibition; also recorded: significantly reduced	significantly reduced, but did not normalize blood pressure	0.83	1.19	1.22	0.83	1.19	1.22	inhibition; also recorded: significantly reduced	MCP1 (AU) ([1]; data used for Table 17 (7-day protocol), listed as Eplerenone + aldosterone + salt): 2.35 AU and 1.60 AU and 0.85 AU and 0.83 AU and 1.74 AU and 2.38 AU and 0.67 AU and 2.03 AU; MCP1 (AU) ([1]; data used for Table 18 (14-day protocol), listed as Eplerenone + aldosterone + salt): 1.78 AU and 1.37 AU and 1.27 AU and 1.75 AU and 1.60 AU and 1.24 AU (2×) and 1.92 AU and 1.89 AU and 2.21 AU and 1.20 AU; MCP1 (AU) ([1]; data used for Table 19 (30-day protocol), listed as Eplerenone + aldosterone + salt): 2.11 AU (2×) and 1.70 AU and 2.21 AU and 1.38 AU and 2.10 AU and 2.02 AU and 1.43 AU and 5.58 AU and 8.14 AU; Systolic Blood Pressure ([2]; listed as eplerenone): depression of this elevation; ICAM (AU) ([3]; individual rats, data used for Table 17 (7-day protocol), incl. rat marked * excluded from statistics, listed as Eplerenone + aldosterone + salt): 0.91 AU and 0.89 AU (2×) and 0.40 AU and 1.23 AU and 0.58 AU and 1.00 AU; ICAM (AU) ([3]; individual rats, data used for Table 18 (14-day protocol), incl. rat marked * excluded from statistics, listed as Eplerenone + aldosterone + salt): 1.20 AU and 1.36 AU and 0.95 AU and 1.26 AU and 1.56 AU and 0.98 AU (2×) and 1.51 AU and 0.79 AU and 1.72 AU and 0.83 AU; ICAM (AU) ([3]; individual rats, data used for Table 19 (30-day protocol), incl. rat marked * excluded from statistics, listed as Eplerenone + aldosterone + salt): 1.54 AU and 2.06 AU and 1.01 AU and 1.21 AU and 1.26 AU and 1.06 AU and 0.60 AU and 0.99 AU and 2.92 AU
